For the experiment, the target named is T1, recombinant human NK3 receptor (Homo sapiens, UniProt P29371).
T1 construct: expressed in transfected cells; host or cells: HEK293 cells, transient expression; membrane preparation
T1 sequence (P29371 1-465): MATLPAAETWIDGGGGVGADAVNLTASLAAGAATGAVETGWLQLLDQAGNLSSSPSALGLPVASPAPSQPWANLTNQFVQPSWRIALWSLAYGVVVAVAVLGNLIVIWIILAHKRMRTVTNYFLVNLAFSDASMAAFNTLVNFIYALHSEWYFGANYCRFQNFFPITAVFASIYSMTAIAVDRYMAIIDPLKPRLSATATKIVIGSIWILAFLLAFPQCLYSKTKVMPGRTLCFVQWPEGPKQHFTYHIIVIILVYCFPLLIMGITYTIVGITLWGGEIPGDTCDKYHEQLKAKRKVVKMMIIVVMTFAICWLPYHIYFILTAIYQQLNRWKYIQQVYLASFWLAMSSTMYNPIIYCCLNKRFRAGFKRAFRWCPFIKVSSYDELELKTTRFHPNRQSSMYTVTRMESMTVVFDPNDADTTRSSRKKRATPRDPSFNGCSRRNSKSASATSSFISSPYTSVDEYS
Nature of the experiment: [3H]SR142801 competition binding assay. The method, boiled down: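 Membranes from HEK293 cells transiently expressing the receptor (5 μg protein/well) incubated 75 min at RT with [3H]SR142801 at its KD and 10 compound concentrations (0.0003-10 μM), in pH 7.4 Tris buffer with MnCl2, phosphoramidon and BSA. Nonspecific binding defined with 10 μM SB222200; bound radioactivity counted after filtration. Ki from IC50 via Cheng-Prusoff; duplicates.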

[1] abbreviates: [3H]SR142801, membranes of HEK293 cells transiently expressing recombinant human NK3 receptor, read-out: hNK3 Ki.
[2] abbreviates: representative compounds, [3H]SR142801, HEK293 membranes, human NK3 receptor, read-out: Ki NK3 h.

Where two headings read alike, the source gives them in different places.

By Ki is commonly meant a dissociation constant, usually derived from enzyme kinetics or from competition with a known ligand.

For `CCN(C1CCN(CCC(C)(C(=O)NCc2ccc(Cl)c(Cl)c2)c2ccc(Cl)c(Cl)c2)CC1)S(C)(=O)=O` (centres unmarked) [Example 71, N-(3,4-Dichloro-benzyl)-2-(3,4-dichloro-phenyl)-4-[4-(ethyl-methanesulfonyl-amino)-piperidin-1-yl]-2-methyl-butyramide], the Ki was found to be 2.8 nM under setting [1] and 2.8 nM under setting [2].

As to `CCN(C1CCN(CCC(C)(C(=O)N(C)Cc2ccc(Cl)cc2)c2ccc(Cl)c(Cl)c2)CC1)S(C)(=O)=O` (centres unmarked) [Example 72, N-(4-Chloro-benzyl)-2-(3,4-dichloro-phenyl)-4-[4-(ethyl-methanesulfonyl-amino)-piperidin-1-yl]-2,N-dimethyl-butyramide], the Ki reads like this: under setting [1], 2.2 nM; under setting [2], 2.2 nM.

On to `CCN(C1CCN(CCC(C)(C(=O)N(C)Cc2ccc(Cl)c(C(F)(F)F)c2)c2ccc(Cl)c(Cl)c2)CC1)S(C)(=O)=O` (centres unmarked) [Example 73, N-(4-Chloro-3-trifluoromethyl-benzyl)-2-(3,4-dichloro-phenyl)-4-[4-(ethyl-methanesulfonyl-amino)-piperidin-1-yl]-2,N-dimethyl-butyramide], for which the Ki by setting is: under setting [1], 1.5 nM; under setting [2], 1.5 nM.

Consider `CCN(C1CCN(CCC(C)(C(=O)N(C)Cc2ccc(F)c(C(F)(F)F)c2)c2ccc(Cl)c(Cl)c2)CC1)S(C)(=O)=O` (centres unmarked) [Example 74, 2-(3,4-Dichloro-phenyl)-4-[4-(ethyl-methanesulfonyl-amino)-piperidin-1-yl]-N-(4-fluoro-3-trifluoromethyl-benzyl)-2,N-dimethyl-butyramide], for which the inhibitory constant (Ki) is 1.3 nM under setting [1] and 1.3 nM under setting [2].

On to `CCN(C1CCN(CCC(C)(C(=O)N(C)Cc2cccc(Cl)c2)c2ccc(Cl)c(Cl)c2)CC1)S(C)(=O)=O` (centres unmarked) [Example 75, N-(3-Chloro-benzyl)-2-(3,4-dichloro-phenyl)-4-[4-(ethyl-methanesulfonyl-amino)-piperidin-1-yl]-2,N-dimethyl-butyramide], for which the Ki was 3.9 nM under setting [1] and 3.9 nM under setting [2].

As to `CCN(C1CCN(CCC(C)(C(=O)N(C)Cc2ccc(C(F)(F)F)cc2)c2ccc(Cl)c(Cl)c2)CC1)S(C)(=O)=O` (centres unmarked) [Example 76, 2-(3,4-Dichloro-phenyl)-4-[4-(ethyl-methanesulfonyl-amino)-piperidin-1-yl]-2,N-dimethyl-N-(4-trifluoromethyl-benzyl)-butyramide], the inhibitory constant (Ki) runs as follows: under setting [1], 1.7 nM; under setting [2], 1.7 nM.

In the case of `CCN(C1CCN(CCC(C)(C(=O)N(C)Cc2ccc(C)cc2)c2ccc(Cl)c(Cl)c2)CC1)S(C)(=O)=O` (centres unmarked) [Example 77, 2-(3,4-Dichloro-phenyl)-4-[4-(ethyl-methanesulfonyl-amino)-piperidin-1-yl]-2,N-dimethyl-N-(4-methyl-benzyl)-butyramide], the inhibition constant Ki under setting [1] is 3.1 nM and the Ki under setting [2] was determined as 3.1 nM.

For `CCN(C1CCN(CCC(C)(C(=O)N(C)Cc2ccccc2Cl)c2ccc(Cl)c(Cl)c2)CC1)S(C)(=O)=O` (centres unmarked) [Example 78, N-(2-Chloro-benzyl)-2-(3,4-dichloro-phenyl)-4-[4-(ethyl-methanesulfonyl-amino)-piperidin-1-yl]-2,N-dimethyl-butyramide], the Ki runs as follows: under setting [1], 3.6 nM; under setting [2], 3.6 nM.

On to `CN(Cc1ccc(C(F)(F)F)c(F)c1)C(=O)C(C)(CCN1CCC(N2CCCC2=O)CC1)c1ccc(Cl)c(Cl)c1` (centres unmarked) [Example 81, 2-(3,4-Dichloro-phenyl)-N-(3-fluoro-4-trifluoromethyl-benzyl)-2,N-dimethyl-4-[4-(2-oxo-pyrrolidin-1-yl)-piperidin-1-yl]-butyramide], for which the Ki came to 3 nM under setting [1] and 3 nM under setting [2].

Take `CN(Cc1ccc(Cl)c(Cl)c1)C(=O)C(C)(CCN1CCC(N2CCCC2=O)CC1)c1ccc(Cl)c(Cl)c1` (centres unmarked) [Example 82, N-(3,4-Dichloro-benzyl)-2-(3,4-dichloro-phenyl)-2,N-dimethyl-4-[4-(2-oxo-pyrrolidin-1-yl)-piperidin-1-yl]-butyramide]: the Ki is 1.2 nM under setting [1] and 1.2 nM under setting [2].

(Values after patent US20110021565A1, “PIPERIDINE DERIVATIVES AS NK3 ANTAGONISTS” (priority 2007, published 2011).)
